From patent US8097238B2, “Cell targeting conjugates” (Peter MacCallum Cancer Institute, priority 2004, dated 2012)
“And” between values parts separate entries of the source, which are not always exact repeats. Equal entries are not always repeated.

What was measured:
K562 cells [1] = assay: K562 cell survival after incubation with labelled iodoHoechst 33258; format: cell-based, human; details: 500 nM for 1 hour at 37° C., decays accumulated at 5° C. for 24 hours
Description: Cells (5×10^5/ml) in RPMI-1640 medium containing 10% FBS and gentamicin were incubated with varying specific activities of ^127I/^123I-iodoHoechst 33258 (500 nM) for 1 hour at 37° C. Following incubation the cells were separated from the supernatant by 3 centrifugation (400×g for 3 minutes)-wash cycles. The cell pellets were suspended in RPMI medium and ^123I-decays were accumulated at 5° C. for 24 hours. Following accumulation of decays, the cell-pellets were isolated by centrifugation at 400×g for 3 minutes, suspended in AMEM containing 20% FBS and an appropriate cell number from each of the samples was cloned in semi-solid (0.33% (w/v)) noble agar in 6-well microtiter plates, as discussed above.

plasmid DNA = assay: Plasmid DNA breakage, ^123I/^125I double isotope method; format: biochemical
From the text: The experimental design exploits the plasmid DNA assay system, and agarose gel electrophoresis, as described previously to evaluate DNA breakage by the labelled minor groove binding DNA ligand, ^125I-iodoHoechst 33258 (Lobachevsky, Karagiannis and Martin 2004).
The accumulation of DNA single-stranded breaks and DNA double-stranded breaks is monitored by quantitation of the decline in the fraction of intact supercoiled plasmid (S), and the corresponding increase in the fractions of relaxed (R) and linear (L) species, with the progressive accumulation of decay events. Various assumptions enable the derivation of the relationship between the parameters S, R and L (or their normalised counterparts S′, R′ and L′), the number of decay events (n), and for example, the yield of double-stranded breaks per decay (d) of isotope in DNA-bound ligand. […] Accordingly, a double isotope strategy was developed, using a mixture of ^123I- and ^125I-iodoHoechst 33258. This approach yields a ratio d values, providing an estimate of the relative efficiency (^123I relative to ^125I) for double-strand breaks per decay, which is independent of f.
The basis of the double isotope method is apparent from the following relationship:
Where n1 is the number of ^123I decays, and n1m is the maximum (ie at time=infinity) number of ^123I decays.
A plot of the LHS term of the above equation versus n2 (the number of ^125I decay events in the incubation mixture) yields a two phase curve, the 2nd phase of which approaches a straight line (when n1=n1m). The values for the apparent breakage DNA dsb efficiency of ^123I and ^125I decays (da1 and da2, respectively) are obtained from the y intercept and from the gradient of the asymptote of the second phase of the curve, as shown in FIG. 14.
The apparent breakage efficiency is related to the actual efficiency of DNA-bound decay events, d, by the expression: da=df+δA
Where δA is the term for the “external” component of damage, arising from decay of non-DNA-bound isotope, which can be ignored because of the particular conditions of the
[formula] experiment, particularly, a low DNA concentration, A. Thus analysis of the data as exemplified in FIG. 14 provides the ratio of breakage efficiencies of ^123I versus ^125I decays.

K562 cells [2] = details: survival curve studies (Karagiannis, Lobachevsky and Martin 2000); cited from earlier work

Compound | decays required for a lethal event (K562 cells [1]) | da1(^123I), apparent DNA dsb breakage efficiency (plasmid DNA; DMSO added to 10% (D series)) | da1(^123I)/da2(^125I) (plasmid DNA; DMSO added to 10% (D series)) | Average da1(^123I)/da2(^125I) (plasmid DNA; DMSO added to 10% (D series), samples D1.2-D3.2) | da1(^123I), apparent DNA dsb breakage efficiency (plasmid DNA; aqueous buffer (N series)) | da1(^123I)/da2(^125I) (plasmid DNA; aqueous buffer (N series)) | Average da1(^123I)/da2(^125I) (plasmid DNA; aqueous buffer (N series), samples N1.2-N3.2) | decays corresponding to a lethal event (K562 cells [2]) | da2(^125I), apparent DNA dsb breakage efficiency (plasmid DNA; DMSO added to 10% (D series)) | da2(^125I), apparent DNA dsb breakage efficiency (plasmid DNA; aqueous buffer (N series))
CN1CCN(c2ccc3nc(-c4ccc5nc(-c6ccc(O)c(I)c6)[nH]c5c4)[nH]c3c2)CC1 [^123I-iodoHoechst 33258] | about 230 ^123I-decays per cell | 0.158 and 0.170 and 0.159 | 0.63 and 0.69 and 0.62 | 0.65 ± 0.03 | 0.244 and 0.253 and 0.314 | 0.59 and 0.64 and 0.66 | 0.63 ± 0.03 |  |  | 
CN1CCN(c2ccc3nc(-c4ccc5nc(-c6ccc(O)c(I)c6)[nH]c5c4)[nH]c3c2)CC1 [^125I-iodoHoechst 33258, reference compound] |  |  |  |  |  |  |  | about 130 ^125I decays per nucleus | 0.252 and 0.248 and 0.258 | 0.413 and 0.397 and 0.474
